Assay results published in US11584744B2 (UNIVERSITY OF WASHINGTON, priority 2017, dated 2023).
Read-outs that look alike come from different tables or passages of the source. Marks after values point to notes of the source that are not given here.

Legend:
[1] = mice infected with T. brucei, 50 mg/kg PO twice-per-day for 10 days; previous publication; cited from earlier work
[2] = test system: P. aeruginosa (ATCC 27853); experiment: MIC susceptibility testing; format: cell-based; conditions: Pseudomonas aeruginosa, ATCC27853
E. coli (ATCC 25922) = experiment: MIC susceptibility testing; format: cell-based; conditions: Escherichia coli, ATCC25922
Outline: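 CLSI broth microdilution in triplicate, 5×10^5 CFU/mL final, ≤0.5% DMSO; MHB for S. aureus, CA-MHB for E. coli and E. faecium, CA-MHB plus 3% laked horse blood for S. pyogenes (5% CO2).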

[3] = Protein binding to human plasma; format: in vitro ADME
S. aureus (ATCC 29213) = experiment: Neutropenic murine S. aureus thigh infection model; format: in vivo, Staphylococcus aureus; conditions: 75 mg/kg orally ×2; for reduction of bacterial load below stasis level: neutropenic mouse
Excerpt: Murine thigh infection model. Animal studies were approved by the Institutional Animal Care and Use Committee at the University of Washington, Seattle. Female specific pathogen free CD1 mice were obtained from Charles River (Wilmington, Mass.) weighing 23-27 grams and allowed at least 3 days to acclimate prior to study. Mice had access to food and water ad libitum. Neutropenia was induced by administering cyclophosphamide monohydrate (Sigma Aldrich C7397; St. Louis, Mo.) via IP injection 4 days (at 150 mg/kg) and 1 day (at 100 mg/kg) prior to infection. Neutropenic status was confirmed by neutrophil count <100 cells/mm^3.
Overnight culture of S. aureus (ATCC strain 29213) was diluted 1:100 in MHB and incubated until reaching mid-log phase (OD600<0.750). The inoculum was prepared by pelleting log-phase culture and re-suspending in sterile dPBS. The culture was adjusted to OD600 of 0.200 and diluted 1:100 in sterile dPBS correlating to an inoculum of ˜5*10^5 CFU/50 μL. The mice were infected by an intramuscular injection of 50 μL in the right posterior thigh while under isoflurane gas anesthesia. At 1 h post infection, one vehicle group was sacrificed for determination of initial inoculum ([…] level of infection). Mice were dosed at 2 and 12 h post-infection with test compounds (below); they received a SC dose of 5 mg/kg ketoprofen at 2 h post-infection for pain management. Mice were sacrificed at 24 h post-infection; the thigh muscle was sterilely removed, weighed, homogenized in 5 mLs dPBS, serially diluted, plated on tryptic soy agar in duplicate, and incubated overnight at 37° C. Colonies were counted to quantify the bacterial load in CFUs per gram of thigh tissue.
Vancomycin was given at 100 mg/kg SC in 100 μL in a 0.9% saline solution. […] Test compounds were administered PO in 200 μL of vehicle containing 60% Phosal 53 MCT (Lipoid, Ludwigshafen Germany), 30% PEG400 (Sigma Aldrich, St. Louis, Mo.), and 10% EtOH (Decon Laboratories, King of Prussia, Pa.).
Efficacy studies in mice: Selected compounds were tested for in vivo efficacy in the neutropenic S. aureus thigh infection model (9). Mice were immunosuppressed with cyclophosphamide then infected in a thigh with 5×10^5 S. aureus (ATCC 29213). Compounds were dosed orally with 75 mg/kg at 2 and 12 h post-infection. At 24 h, thighs were harvested for CFU counts.

T. brucei = T. brucei growth inhibition; format: cell-based, Trypanosoma brucei; conditions: read-out: (D) T. brucei EC50
T. cruzi = experiment: Acute T. cruzi infection model (bioluminescent T. cruzi); format: in vivo, Trypanosoma cruzi; conditions: 50 mg/kg orally twice a day for five days
Procedure: FIG. 5 illustrates efficacy of a MetRS inhibitor in acute T. cruzi infection model. (A) Study protocol. Compounds were dosed orally with 50 mg/kg twice a day for five days, and the images were taken of day 6, 13, and 24. (B) Images and (C) graphs of the […] results.
(§1) Several compounds of the disclosure were also evaluated in vivo in C. parvum infection model and in acute T. cruzi infection model. Immunosuppressed mice (NOD SCID Gamma) with Cryptosporidium infection were treated for 5 days with test compounds. Cryptosporidium oocysts were quantified in stool by PCR. […] In FIG. 4, gamma-IFN knockout mice were used and, similarly, treated for 5 days with the test compound 2093. […] With respect to the T. cruzi, an efficacy model was employed in which the infection was monitored using bioluminescent T. cruz. With vehicle treatment, all mice died by day 14 post-infection.

Cryptosporidium = experiment: C. parvum infection model, NOD SCID Gamma mice, oocysts in stool by PCR; format: in vivo, Cryptosporidium parvum; conditions: treated 5 days
Procedure: as §1

[4] = test system: G. lamblia (ATCC GL50803); experiment: G. lamblia growth inhibition; format: cell-based; conditions: Giardia duodenalis, read-out: (K) G. lamblia (ATCC GL50803) EC50
Cryptosporidium parvum = experiment: C. parvum parasite burden model, gamma-IFN knockout mice, bioluminescence readout; format: in vivo
Procedure: FIG. 4 illustrates efficacy of MetRS inhibitors in a parasite burden model of Cryptosporidium parvum infection. About 1,000-fold reduction of parasite burden was observed after treatment by 2093.
as §1

[5] = Data from Drugbank; cited from earlier work

## Fc1ccc2nc(NCCCNCc3cc(Cl)cc(Cl)c3)[nH]c2n1 [Compound 1614, [(3,5-dichlorophenyl)methyl][3-({5-fluoro-3H-imidazo[4,5-b]pyridin-2-yl}amino)propyl]amine]
[1]
  effects on weight, grooming, or body condition: no deleterious effects on weight, grooming, or body condition
[2]
  MIC: > 10 µg/mL
E. coli (ATCC 25922)
  MIC: > 10 µg/mL

## Fc1ccc2nc(NCCCN[C@@H]3CCNc4c(Cl)cc(Cl)cc43)[nH]c2n1 [Compound 1717, (4R)-6,8-dichloro—N-[3-({5-fluoro-3H-imidazo[4,5-b]pyridin-2-yl}amino)propyl]-1,2,3,4-tetrahydroquinolin-4-amine, reference compound]
[1]
  effects on weight, grooming, or body condition: no deleterious effects on weight, grooming, or body condition
[3]
  % binding to human plasma: 95.4%
[2]
  MIC: > 10 µg/mL
E. coli (ATCC 25922)
  MIC: > 10 µg/mL
S. aureus (ATCC 29213)
  efficacy in thigh infection model: significant reduction of bacterial load below the stasis level
  reduction of bacterial load below stasis level: approximately 2 log

## CCn1c(Cc2ccc(Cl)cc2Cl)cn(Cc2nc3nc(F)ccc3[nH]2)c1=O [Compound 2062, 4-[(2,4-dichlorophenyl)methyl]-3-ethyl-1-({5-fluoro-1H-imidazo[4,5-b]pyridin-2-yl}methyl)-2,3-dihydro-1H-imidazol-2-one]
T. brucei
  EC50: 3.48 nM

## CCn1c(Cc2ccc(OC)cc2Cl)cn(Cc2nc3nc(Cl)ccc3[nH]2)c1=O [Compound 2093, 1-({5-chloro-1H-imidazo[4,5-b]pyridin-2-yl}methyl)-4-[(2-chloro-4-methoxyphenyl)methyl]-3-ethyl-2,3-dihydro-1H-imidazol-2-one]
T. cruzi
  tissue parasites: dramatic suppression of tissue parasites
T. cruzi; vehicle mice all died by day 14
  survival: 100%
Cryptosporidium
  suppression of infection: over 99%
[4]
  EC50: 10 nM
Cryptosporidium parvum; FIG. 4
  reduction of parasite burden: About 1,000 fold
Cryptosporidium parvum; gamma-IFN knockout mice, treated 5 days, bioluminescence
  drop in fecal parasites: > 4 log
S. aureus (ATCC 29213)
  efficacy in thigh infection model: weaker activity than the other MetRS inhibitors evaluated

## CCn1c(Cc2ccc(OC)cc2Cl)cn(Cc2nc3nc(F)ccc3[nH]2)c1=O [Compound 2114, 4-[(2-chloro-4-methoxyphenyl)methyl]-3-ethyl-1-({5-fluoro-1H-imidazo[4,5-b]pyridin-2-yl}methyl)-2,3-dihydro-1H-imidazol-2-one]
T. brucei; Trypanosoma brucei
  EC50: 1.4 nM

## COc1cc(Cl)c(-c2cccc3nc(Cc4nc5nc(Cl)ccc5[nH]4)cn23)cc1OC [Compound 2144, 2-({5-chloro-1H-imidazo[4,5-b]pyridin-2-yl}methyl)-5-(2-chloro-4,5-dimethoxyphenyl)imidazo[1,2-a]pyridine]
S. aureus (ATCC 29213)
  efficacy in thigh infection model: significant reduction of bacterial load below the stasis level
  reduction of bacterial load below stasis level: approximately 2 log

## CC(=O)NC[C@H]1CN(c2ccc(N3CCOCC3)c(F)c2)C(=O)O1 [LNZ, linezolid]
[5]
  % binding to human plasma: 31* %
